For data set [1] the following is noted: cited from earlier work.
For a further data set, the system named is PC-3. Briefly: Cytotoxicity assay, PC-3 (prostate). The following applies: Homo sapiens, PC-3, read-out: Cytotoxicity IC50, PC-3.
The subject of a further data set is LS-174T. Briefly: Cytotoxicity assay, LS-174T (colon). Conditions: Homo sapiens, LS174T, read-out: Cytotoxicity IC50, LS-174T.
A further data set has as its system BxPC-3. Briefly: Cytotoxicity assay, BxPC-3 (pancreatic). Conditions: Homo sapiens, BXPC-3, read-out: Cytotoxicity IC50, Bx-PC3.
In another data set the test system is MIA PaCa-2. Briefly: Cytotoxicity assay, MIA PaCa-2 (pancreatic). The following applies: Homo sapiens, MIA PaCa-2, read-out: Cytotoxicity IC50, MIA PaCa-2.

As a reminder, the IC50 is the concentration at which inhibition is half-maximal.

Molecules are shown by their SMILES.

Procedure for BxPC-3: (§1) The growth inhibitory effects of conjugates 5 and 8 were examined through a series of cytoxcicity assays against a variety of cancer cell types of human origin. The cell types tested were PC-3 (prostate), LS-174T (colon), MIA PaCa-2 (pancreatic) and BxPC-3 (pancreatic).
(§2) The surviving cell populations were counted on the fourth day after treatment (96 hour post-treatment). The viable cells were then counted and the numbers of treated cells were normalized against the untreated controls (taken as 100%).
(§3) Tumor cells (as indicated) were maintained as monolayers in 75-cm^2 tissue culture flasks using their respective cell culture medium containing 10% fetal bovine serum and 2 mM L-glutamine. Incubation was at 37° C. under a humidified 5% CO2: air atmosphere (standard conditions) for five days. The cells were harvested when in mid-log growth and their concentration was determined using a particle counter (Beckman Coulter, Inc, Fullerton, Calif.). An aliquot of the cell suspension was diluted in culture medium for delivery to a 24-well tissue culture plate at a range of 10,000 to 30,000 per 1 mL per well. […] Following a 96-h incubation under standard conditions from the initial treatment, the viable cells were counted and the numbers were normalized to the percent of untreated controls. […]
Procedure for LS-174T: as §1, §2, §3
Procedure for MIA PaCa-2: as §1, §2, §3

Regarding `COc1cc(/C=C/C(=O)CC(=O)/C=C/c2ccc(O)c(OC)c2)ccc1O` [Curcumin, (E,E)-1,7-bis(4-hydroxy-3-methoxyphenyl)-1,6-heptadiene-3,5-dione], the “solubility in water and other aqueous solutions” value in data set [1] was “insoluble”. The IC50 was determined as 12 ± 1.35 µM in the data set on PC-3, 6.5 ± 1.4 µM in the data set on LS-174T, 2 ± 0.3 µM in the data set on BxPC-3 and 9 ± 2.5 µM with MIA PaCa-2.
